Data: US7713994B2 (Wyeth LLC, priority 2005, dated 2010)

What was measured:
[1] = test system: MCF-7; assay: Cytotoxicity assay (SRB), MCF-7; format: cell-based; settings: Homo sapiens, MCF7, 72 h, MCF-7 cells, SRB, three days; read-out: In Vitro Cellular Activity IC50 MCF-7
Procedure, shortened: (§1)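 Overnight-seeded monolayers (4000–12000 cells/well by line) receive compound in 5% FBS medium at 37 °C, 7% CO2. After 3 d, or 6 d for BT474, cellular protein is fixed with cold TCA, stained with SRB and read at 540 nm against untreated wells.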

[2] = test system: LoVo; assay: Cytotoxicity assay (SRB), LoVo; format: cell-based; settings: Homo sapiens, LoVo, 72 h, LoVo cells, SRB, three days; read-out: In Vitro Cellular Activity IC50 LOVO
Procedure, shortened: as §1

[3] = molecular target: T1, cyclin E/CDK2 enzyme (Homo sapiens, UniProt P24941); assay: CDK2 ELISA kinase assay (phospho-Rb ser 795 detection); format: biochemical; settings: In Vitro Enzyme Assays, read-out: CDK2 IC50
T1 construct: made in house; host or cells: Sf9 insect cells, recombinant baculovirus
Procedure, shortened: (§2)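 Wells were coated overnight with GST-Rb C-terminal fragment, then blocked. Compound (10 ug/ml final) and cyclin/CDK enzyme from baculovirus-infected Sf9 cells with 200 μM ATP reacted 1 h at 30° C. Ser795 phosphorylation was detected by ELISA at 450 nm.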

[4] = molecular target: T2, cyclin B/CDK1 enzyme (Homo sapiens, UniProt P06493); assay: CDK1 ELISA kinase assay (phospho-Rb ser 795 detection); format: biochemical; settings: In Vitro Enzyme Assays, read-out: CDK1 IC50
T2 construct: purchased New England BioLabs; host or cells: Sf9 insect cells, recombinant baculovirus
Procedure, shortened: as §2

[5] = molecular target: T3, cyclin D1/cdk 4 enzyme (Homo sapiens, UniProt P11802); assay: CDK4 ELISA kinase assay (phospho-Rb ser 795 detection); format: biochemical; settings: In Vitro Enzyme Assays, 200 μM ATP, read-out: CDK4 IC50
T3 construct: made in house; host or cells: Sf9 insect cells, recombinant baculovirus
Procedure, shortened: as §2

[6] = test system: BT474; assay: Cytotoxicity assay (SRB), BT474; format: cell-based; settings: Homo sapiens, BT-474, 144 h, BT474 cells, SRB, 6 days; read-out: In Vitro Cellular Activity IC50 BT474
Procedure, shortened: as §1

[7] = test system: HCT-116; assay: Cytotoxicity assay (SRB), HCT-116; format: cell-based; settings: Homo sapiens, HCT-116, 72 h, HCT116 cells, SRB, three days; read-out: In Vitro Cellular Activity IC50 HCT116
Procedure, shortened: as §1

T3 sequence (P11802 whole entry, species assumed): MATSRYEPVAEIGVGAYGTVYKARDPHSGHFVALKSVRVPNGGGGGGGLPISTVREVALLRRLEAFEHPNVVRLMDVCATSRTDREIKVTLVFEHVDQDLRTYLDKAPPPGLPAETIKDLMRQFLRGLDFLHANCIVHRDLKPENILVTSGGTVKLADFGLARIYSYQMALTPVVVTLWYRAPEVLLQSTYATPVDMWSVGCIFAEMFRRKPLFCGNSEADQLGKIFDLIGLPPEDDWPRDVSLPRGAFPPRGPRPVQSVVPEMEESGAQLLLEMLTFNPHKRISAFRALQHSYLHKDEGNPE
T3 sequence (P24385 whole entry partner, species assumed): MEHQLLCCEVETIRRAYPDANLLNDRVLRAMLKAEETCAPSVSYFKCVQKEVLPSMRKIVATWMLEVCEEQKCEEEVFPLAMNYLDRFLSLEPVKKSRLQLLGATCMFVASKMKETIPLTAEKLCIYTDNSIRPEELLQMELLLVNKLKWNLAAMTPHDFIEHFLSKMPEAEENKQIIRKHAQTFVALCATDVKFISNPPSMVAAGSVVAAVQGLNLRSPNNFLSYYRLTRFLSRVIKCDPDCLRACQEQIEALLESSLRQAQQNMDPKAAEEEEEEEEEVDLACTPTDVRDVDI
T2 sequence (P06493 whole entry): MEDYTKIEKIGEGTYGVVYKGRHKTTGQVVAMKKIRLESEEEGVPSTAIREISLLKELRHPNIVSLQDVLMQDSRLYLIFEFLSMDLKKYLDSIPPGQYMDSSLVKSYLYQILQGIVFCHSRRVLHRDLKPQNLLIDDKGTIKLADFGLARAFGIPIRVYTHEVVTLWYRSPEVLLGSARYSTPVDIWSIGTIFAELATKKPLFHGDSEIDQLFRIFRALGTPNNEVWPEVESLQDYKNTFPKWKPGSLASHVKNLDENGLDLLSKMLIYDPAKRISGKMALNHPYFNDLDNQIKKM
T2 sequence (P14635 whole entry partner): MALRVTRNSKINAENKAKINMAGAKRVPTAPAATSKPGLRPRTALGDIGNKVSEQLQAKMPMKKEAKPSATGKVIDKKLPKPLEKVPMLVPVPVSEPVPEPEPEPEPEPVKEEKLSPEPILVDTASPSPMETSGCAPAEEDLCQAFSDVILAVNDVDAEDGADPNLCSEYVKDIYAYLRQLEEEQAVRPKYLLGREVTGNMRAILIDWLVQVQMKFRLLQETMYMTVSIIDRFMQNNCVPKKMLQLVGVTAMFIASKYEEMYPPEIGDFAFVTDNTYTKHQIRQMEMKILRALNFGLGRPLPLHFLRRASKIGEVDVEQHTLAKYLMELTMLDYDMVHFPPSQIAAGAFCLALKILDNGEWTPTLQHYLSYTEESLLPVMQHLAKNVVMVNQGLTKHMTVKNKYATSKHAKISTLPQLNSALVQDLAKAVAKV

Row | SMILES | IC50 [3] | IC50 [4] | IC50 [5] | melting point | IC50 [1] | IC50 [2] | IC50 [6] | IC50 [7]
1 | CN1CCC(c2ccc(N/C=C3\C(=O)NC(=O)c4ccc(-c5ccsc5)cc43)cc2)CC1 [Example 327, (4Z)-4-({[4-(1-Methylpiperidin-4-yl)phenyl]amino}methylene)-6-thien-3-ylisoquinoline-1,3(2H,4H)-dione] | > 50000 nM | > 50000 nM | 60 nM | 217 to 218 °C | 2200 nM | 2900 nM | 2500 nM | 1500 nM
2 | CN1CCN(c2ccc(N/C=C3\C(=O)NC(=O)c4ccc(-n5cccc5)cc43)cc2F)CC1 [Example 328, (4Z)-4-({[3-Fluoro-4-(4-methylpiperazin-1-yl)phenyl]amino}methylene)-6-(1H-pyrrol-1-yl)isoquinoline-1,3(2H,4H)-dione] | > 50000 nM | > 50000 nM | 770 nM | 206 to 207 °C | 1900 nM | 8700 nM | 1600 nM | 2400 nM
3 | COC[C@H]1CCCN1Cc1ccc(N/C=C2\C(=O)NC(=O)c3ccc(-c4ccoc4)cc32)cc1 [Example 330, (4Z)-6-(3-Furyl)-4-{[(4-{[(2R)-2-(methoxymethyl)pyrrolidin-1-yl]methyl}phenyl)amino]methylene}isoquinoline-1,3(2H,4H)-dione] | > 50000 nM | > 50000 nM | 200 nM | 130 to 131 °C | 690 nM | 2300 nM | 1000 nM | 2100 nM
4 | COC[C@H]1CCCN1Cc1ccc(N/C=C2\C(=O)NC(=O)c3ccc(-c4ccsc4)cc32)cc1 [Example 331, (4Z)-4-{[(4-{[(2R)-2-(Methoxymethyl)pyrrolidin-1-yl]methyl}phenyl)amino]methylene}-6-thien-3-ylisoquinoline-1,3(2H,4H)-dione] | > 50000 nM | > 50000 nM | 170 nM | 95 to 96 °C | 1700 nM | 3000 nM | 3300 nM | 1500 nM
5 | COc1cnc(CN/C=C2\C(=O)NC(=O)c3ccc(Br)cc32)cc1O [Example 332, 6-Bromo-4-{[(4-hydroxy-5-methoxy-pyridin-2-ylmethyl)-amino]-methylene}-4H-isoquinoline-1,3-dione] | 2200 nM | 21300 nM | 120 nM | 209 to 211 °C (dec.) | 3200 nM | 1300 nM | 540 nM | 3500 nM
6 | CN1CCC(c2ccc(N/C=C3\C(=O)NC(=O)c4ccc(Br)cc43)cc2)CC1 [Example 344, (4Z)-6-Bromo-4-({[4-(1-methylpiperidin-4-yl)phenyl]amino}methylene)isoquinoline-1,3(2H,4H)-dione] | > 50000 nM | > 50000 nM | 460 nM | 217 to 218 °C | 1600 nM | 2800 nM | 4200 nM | 2600 nM

Further lines, with some results ahead:

Row | IC50 [3] | IC50 [4] | IC50 [5] | melting point | SMILES | IC50 [1] | IC50 [2] | IC50 [6] | IC50 [7]
7 | 43400 nM | 28300 nM | 15400 nM | 227 to 228 °C | COc1ccc(-c2ccc3c(c2)/C(=C/Nc2ccc(N4C[C@@H](C)N[C@@H](C)C4)c(F)c2)C(=O)NC3=O)cc1 [Example 345, (4Z)-4-[({4-[(3R,5S)-3,5-Dimethylpiperazin-1-yl]-3-fluorophenyl}amino)methylene]-6-(4-methoxyphenyl)isoquinoline-1,3(2H,4H)-dione] | 1400 nM | 1200 nM | 910 nM | 940 nM
8 | > 50000 nM | > 50000 nM | 180 nM | 175 to 176 °C | C[C@@H]1CN(c2cncc(N/C=C3\C(=O)NC(=O)c4ccc(-c5ccoc5)cc43)c2)C[C@H](C)N1 [Example 346, (4Z)-4-[({5-[(3R,5S)-3,5-Dimethylpiperazin-1-yl]pyridin-3-yl}amino)methylene]-6-(3-furyl)isoquinoline-1,3(2H,4H)-dione] | 1400 nM | 2100 nM | 960 nM | 1900 nM
9 | 1500 nM | 6700 nM | 5 nM | 198 to 199 °C | CN(C)c1ccc(CN/C=C2\C(=O)NC(=O)c3ccc(I)cc32)cc1O [Example 347, (4Z)-4-({[4-(Dimethylamino)-3-hydroxybenzyl]amino}methylene)-6-iodoisoquinoline-1,3(2H,4H)-dione] | 2200 nM | 2700 nM | 2400 nM | 3100 nM
10 | > 50000 nM | > 50000 nM | 130 nM | 178 to 179 °C | CC(=O)N1CCC(c2ccc(N/C=C3\C(=O)NC(=O)c4ccc(-c5ccoc5)cc43)cc2)CC1 [Example 351, (4Z)-4-({[4-(1-Acetylpiperidin-4-yl)phenyl]amino}methylene)-6-(3-furyl)isoquinoline-1,3(2H,4H)-dione] | 2100 nM | 2700 nM | 1100 nM | 3000 nM
11 | > 50000 nM | > 50000 nM | 360 nM | 195 to 196 °C | Cc1cc(N/C=C2\C(=O)NC(=O)c3ccc(-c4ccoc4)cc32)cnc1N1C[C@@H](C)N[C@@H](C)C1 [Example 355, (4Z)-4-[({6-[(3R,5S)-3,5-Dimethylpiperazin-1-yl]-5-methylpyridin-3-yl}amino)methylene]-6-(3-furyl)isoquinoline-1,3(2H,4H)-dione] | 1400 nM | 2000 nM | 1700 nM | 1200 nM
12 | > 50000 nM | > 50000 nM | 390 nM | 219 to 220 °C | Cc1cc(N/C=C2\C(=O)NC(=O)c3ccc(-c4ccsc4)cc32)cnc1N1C[C@@H](C)N[C@@H](C)C1 [Example 356, (4Z)-4-[({6-[(3R,5S)-3,5-Dimethylpiperazin-1-yl]-5-methylpyridin-3-yl}amino)methylene]-6-thien-3-ylisoquinoline-1,3(2H,4H)-dione] | 2700 nM | 2800 nM | 3000 nM | 1600 nM
13 | > 50000 nM | > 50000 nM | 31000 nM | 213 to 214 °C | COc1ccc(-c2ccc3c(c2)/C(=C/Nc2cnc(N4C[C@@H](C)N[C@@H](C)C4)c(C)c2)C(=O)NC3=O)cc1 [Example 357, (4Z)-4-[({6-[(3R,5S)-3,5-Dimethylpiperazin-1-yl]-5-methylpyridin-3-yl}amino)methylene]-6-(4-methoxyphenyl)isoquinoline-1,3(2H,4H)-dione] | 1600 nM | 2800 nM | 2500 nM | 1100 nM
14 | 43400 nM | 35500 nM | 310 nM | 232 to 233 °C | COc1ccc(-c2ccc3c(c2)/C(=C/Nc2ccc(CN4CCCC4C)cc2)C(=O)NC3=O)cc1 (stereo not shown) [Example 358, (4Z)-6-(4-Methoxyphenyl)-4-[({4-[(2-methylpyrrolidin-1-yl)methyl]phenyl}amino)-methylene]-isoquinoline-1,3(2H,4H)-dione] | 2500 nM | 3000 nM | 2600 nM | 1400 nM
